What was measured:
TNKS1 = molecular target: T1, TNKS1 (Homo sapiens, UniProt O95271); assay: TNKS1 activity ELISA (autoparsylation assay); assay type: biochemical; settings: GST-tagged Tnks-1 (1023-1327 aa), 10 μM bio-NAD, 1 hour at 30° C.
T1 construct: GST-tagged Tnks-1 (1023-1327 aa, prepared in-house); made in house
Method: (§1) Description of the TNKS1 and TNKS2 ELISA Assay
(§2) Biochemical activity testing of TNKS 1 and 2: activity ELISA (Autoparsylation assay)
(§3) For analysis of autoparsylation activity of TNKS 1 and 2 an activity ELISA is performed: In the first step GST tagged TNKS is captured on a Glutathione coated plate. Then the activity assay with biotinylated NAD is performed in the absence/presence of the compounds. During the enzymatic reaction GST tagged TNKS transfers biotinylated ADP-ribose to itself from biotinylated NAD as co-substrate. For the detection streptavidin-HRP conjugate is added that binds to the biotinylated TNKS and is thereby captured to the plates. The amount of biotinylated resp. autoparsylated TNKS is detected with a luminescence substrate for HRP. The level of the luminescence signal correlates directly with the amount of autoparsylated TNKS and therefore with activity of TNKS.
(§4) The activity ELISA is performed in 384 well Glutathione coated microtiter plates (Express capture Glutathione coated plate, Biocat, Heidelberg, Germany). The plates are pre-equilibrated with PBS. […] The plates are washed 3 times with PBS-Tween-20. The wells are blocked by incubation at room temperature for 20 minutes with 50 μl blocking buffer (PBS, 0.05% Tween-20, 0.5% BSA). Afterwards the plates are washed 3 times with PBS-Tween-20. […] The reaction is stopped by 3 times washing with PBS-Tween-20. For the detection 50 μl of 20 ng/μl Streptavidin, HRP conjugate (MoBiTec, Göttingen, Germany) in PBS/0.05% Tween-20/0.01% BSA are added and the plates are incubated for 30 minutes at room temperature. After three times washing with PBS-Tween-20 50 μl of SuperSignal ELISA Femto Maximum sensitivity substrate solution (ThermoFisherScientific (Pierce), Bonn, Germany) are added. Following a 1 minute incubation at room temperature luminescence signals are measured with an Envision multimode reader (Perkin Elmer LAS Germany GmbH) at 700 nm. The full value used is the inhibitor-free reaction. […] The inhibitory values (IC50) are determined using either the program Symyx Assay Explorer® or Condosseo® from GeneData.

TNKS2 = molecular target: T2, TNKS2 (Homo sapiens, UniProt Q9H2K2); assay: TNKS2 activity ELISA (autoparsylation assay); assay type: biochemical; settings: GST-tagged Tnks-2 (873-1166 aa), 10 μM bio-NAD, 1 hour at 30° C.
T2 construct: GST-tagged Tnks-2 (873-1166 aa, prepared in-house); made in house
T2 sequence (Q9H2K2 873-1166): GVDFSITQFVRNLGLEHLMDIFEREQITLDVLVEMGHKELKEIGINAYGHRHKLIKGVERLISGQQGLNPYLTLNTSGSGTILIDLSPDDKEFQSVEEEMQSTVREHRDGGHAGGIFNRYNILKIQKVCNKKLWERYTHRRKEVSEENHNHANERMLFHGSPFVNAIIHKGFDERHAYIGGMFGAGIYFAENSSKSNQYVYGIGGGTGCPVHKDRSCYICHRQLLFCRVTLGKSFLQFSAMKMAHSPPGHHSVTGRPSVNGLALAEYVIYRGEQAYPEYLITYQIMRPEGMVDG
Method: as §1, §2, §3, §4

Tankyrases = settings: read-out: EC50 [M] TNKS cellular assay; increase of Axin2 level in colon carcinoma cell line DLD1, 24 hours
Method: Measurement of Cellular Inhibition of Tankyrase
Cells of the colon carcinoma cell line DLD1 are plated in 96 well plates with 1.5×10^4 cells per well. Next day, cells are treated with a serial dilution of test compound in seven steps as triplicates with a final DMSO concentration of 0.3%. […] The amount of isolated Axin2 protein is determined in a Luminex^200 machine (Luminex Corporation) according to the manufacturer's instruction by counting 100 events per well. […] As controls cells are treated with solvent alone (neutral control) and with a Tankyrase reference inhibitor IWR-2 (3E−06 M) which refers as control for maximum increase of Axin2. For analysis, the obtained data are normalized against the untreated solvent control and fitted for determination of the EC50 values using the Assay Explorer software (Accelrys).

T1 sequence (O95271 1023-1327): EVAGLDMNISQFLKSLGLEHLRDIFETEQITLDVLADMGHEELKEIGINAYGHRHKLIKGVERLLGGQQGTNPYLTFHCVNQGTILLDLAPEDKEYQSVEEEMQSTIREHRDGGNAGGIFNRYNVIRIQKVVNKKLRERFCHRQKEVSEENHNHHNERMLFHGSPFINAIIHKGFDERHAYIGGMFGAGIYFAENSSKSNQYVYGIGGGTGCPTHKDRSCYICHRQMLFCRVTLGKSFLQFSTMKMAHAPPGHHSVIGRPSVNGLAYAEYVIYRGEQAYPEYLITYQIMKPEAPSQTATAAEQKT

SMILES | IC50 (TNKS1) [nM] | IC50 (TNKS2) [nM] | EC50 (Tankyrases) [M]
CCN(C(=O)N1CCC(C(=O)c2ccc3c(c2)ncn3C)CC1)c1ccc(C(=O)O)cc1 [Compound C31, 4-{Ethyl-[4-(1-methyl-1H-benzimidazole-5-carbonyl)-piperidine-1-carbonyl]-amino}-benzoic Acid] | 3.5 | 2.6 | 3.69e-07
CCN(C(=O)N1CCC(C(=O)c2ccc3c(c2)ncn3C)CC1)c1cccc(C(=O)O)c1 [Compound C33, 3-{Ethyl-[4-(1-methyl-1H-benzimidazole-5-carbonyl)-piperidine-1-carbonyl]-amino}-benzoic Acid] | 3.3 | 1.5 | 3.6e-06
CN(C(=O)N1CCC(C(=O)c2ccc3nnn(C)c3c2)CC1)c1ccc(C(=O)O)cc1 [Compound C34, 4-{Methyl-[4-(3-methyl-3H-benzotriazole-5-carbonyl)-piperidine-1-carbonyl]-amino}-benzoic Acid] | 2.6 | 1.1 | 3.2e-06
CCN(C(=O)N1CCC(C(=O)c2ccc3nnn(C)c3c2)CC1)c1ccc(C(=O)O)cc1 [Compound C35, 4-{Ethyl-[4-(3-methyl-3H-benzotriazole-5-carbonyl)-piperidine-1-carbonyl]-amino}-benzoic Acid] | 0.472 | 0.192 | 3.1e-07

From US20220096454A1, “CARBOXYLIC ACID DERIVATIVES” (Merck Patent GmbH, priority 2018, published 2022)
